Here are results for 1 molecule from patent US20210267978A1, “NANOPARTICLE FORMULATIONS OF IKE AND METHODS OF USE THEREOF” (The Trustees of Columbia University in the City of New York, priority 2018, published 2021).

The test system of one data set is SUDHL6 cells. In words: Reduced glutathione measurement in cell culture (Fluorometric-Green). The data set is classed as cell-based. The note with it: Homo sapiens, SU-DHL-6, 24 hours, average of three experiments, read-out: IC50 of GSH depletion. The procedure:
2.4 million cells were incubated with DMSO, IKE, or β-mercaptoethanol (β-Me) at a density of 0.2 million cells/mL for 24 h. Cells were collected and washed with cold PBS once. Cell number was counted by Vi-Cell. Cells were resuspended in ice cold RIPA buffer (Thermo Fisher Scientific, 89900) with 100 μL/one million cells. Samples were centrifuged for 15 min at 4° C. at 17,000×g. The resulting supernatant was deproteinized using a trichloroacetic acid and sodium bicarbonate solution and kept on ice. The sample was diluted with assay buffer provided in GSH/GSSG Ratio Detection Assay Kit (Abcam, ab13881) ten-fold. Reduced glutathione (GSH) levels were determined using Fluorometric-Green provided in the kit following the manufacture's protocol. 384-well (Corning) low volume black flat bottom polystyrene non-treated microplates 1230F99 were used in this experiment.

The subject of data set [1] is SUDHL6 xenograft tumor tissue. In words: Immunofluorescence on paraffin-embedded tumor sections after one IKE dose. Type of data set: in vivo, NCG mice. The note with it: 4 h after one dose of IKE. On the procedure:
NCG mice 6-weeks of age were injected with 10 million SUDHL-6 cells subcutaneously. Visible tumors appeared after 2 weeks. Tumor size was measured by electronic caliper every 2 days and calculated using the formula: 0.5×length×width^2. After another 2 weeks, mice were randomly separated into group of 3 mice per cage with roughly tumor size (1200 mm^3). Mice were dosed at 50 mg/kg IKE, 22 mg/kg IKE, 22 mg/kg IKE PEG-PLGA nanoparticles (equal to 600 mg/kg PEG-PLGA) using IP at one time and samples were collected at 0, 1, 2, 3, 4, 6, and 24 h with three mice per time point. Mice were dosed with Vehicle 1 and Vehicle 2 (600 mg/kg PEG-PLGA) by IP and samples were collected at 24 h. Mice were euthanized using a CO2 gas chamber before xenograft dissection and cardio puncture. Plasma samples were collected and analyzed as described above. […] After drying, the samples were resuspended in 100 μL of methanol and analyzed on the LC-MS with each sample analyzed twice. […] The concentration of IKE in the sample was determined by comparison against a standard curve of IKE in the range of 25 to 2,500 ng/mL. […] Pharmacokinetics parameters of IKE were assessed using Prism fitted with Lognormal of one phase exponential decay. […]
Tumor tissue was fixed in 4% paraformaldehyde (PFA) for 24 h at 4° C. followed by washing three times with PBS. […] Then the above steps were followed for staining and quantification.

Data set [2] in a line: IKE efficacy study, mouse weight. Type of data set: in vivo, NCG mice. The note with it: 14 days, starting from day 9. The procedure:
IKE was dissolved in 5% DMSO/95% HBSS at pH 4 to create a 4 mg/mL solution. 5% DMSO/95% HBSS at pH 4 was used as vehicle 1. IKE PEG-PLGA nanoparticles and unfunctionalized PEG-PLGA nanoparticles (without IKE loading) (vehicle 2) prepared with a NanoAssemblr were dialyzed with deionized water overnight, the water was changed at least twice. Dialyzed IKE-PEG-PLGA nanoparticles and unfunctional PEG-PLGA nanoparticles were concentrated by Amicon Ultra-15 Centrifugal Filter Units to create a solution with 80 mg/mL PEG-PLGA nanoparticles. All above solutions were sterilized by filter through a 0.2 μm syringe filter.
NCG mice, 6-weeks old, were injected with 10 million SUDHLO-6 cells subcutaneously. […] Tumor volume was measured daily with electronic caliper and calculated using the formula: 0.5×length×width^2. […] Tumor volume change was analyzed in Prism using one-way ANOVA. Tumor tissues were analyzed as described in the RT-qPCR, immunofluorescence, TBARS, and lipidomics sections below.
We investigated the efficacy of IKE in vivo in male NCG mice bearing SUDHL6 subcutaneous xenografts. […] During the experimental period, mouse weight and tumor volume were measured daily to determine IKE's antitumor effect and possible toxicity. Tumor growth was calculated as the fold change relative to original tumor volume on day 0 before the first dose (FIG. 4C). […]

The term IC50 denotes the point on the concentration scale where inhibition reaches its midpoint. On to `CC(C)Oc1ccc(C(=O)Cn2ccnc2)cc1-n1c(CN2CCN(C(=O)COc3ccc(Cl)cc3)CC2)nc2ccccc2c1=O` [IKE, Imidazole ketone erastin], for which the IC50 in the data set with SUDHL6 cells was found to be 34 nM. Besides, in data set [1], the “increase of 8-OHdG (fluorescence intensity) relative to vehicle” value is 1.5 fold and the “increase of dihydropyridine-MDA-lysine adducts (fluorescence intensity) relative to vehicle” value worked out at 1.6 fold. Also, in data set [2] (23 mg/kg daily), the mouse weight entry is “weight loss”. For the same molecule, the mouse weight entry in data set [2] (40 mg/kg daily) is “weight loss”.
